Laboratory results as given in patent publication US6737383B1, “Herbicidal oxadiazolidines” (priority 1999, dated 2004).

Experiments:
[1] = test system: purple nutsedge; assay: Test B pre/postemergence purple nutsedge; assay type: in vivo, Cyperus rotundus; conditions: for Nutsedge plant response rating: scale of 0 to 10 where 0 is no effect and 10 is complete control
How it was run: (§1)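 Response is a visual 0-to-10 score relative to untreated plants, where 0 means no effect and 10 means complete control, taken twelve to sixteen days after application. Treatments went onto soil at planting and onto foliage of 1- to 4-leaf plants, using a surfactant-containing non-phytotoxic solvent.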

[2] = test system: duck salad; assay: Test B flood test duck salad; assay type: in vivo, Heteranthera limosa
How it was run: (§2)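 Read-out is a visual response score from 0 (no effect) to 10 (complete control), assigned by comparison with untreated controls. Treatment was applied at the 2-leaf stage, and plants stayed in the greenhouse for twelve to sixteen days before scoring.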

[3] = test system: sugar beet; assay: Test B pre/postemergence sugar beet; assay type: in vivo, Beta vulgaris; conditions: for Sugarbeets plant response rating: scale of 0 to 10 where 0 is no effect and 10 is complete control
How it was run: as §1

[4] = test system: soybean; assay: Test B pre/postemergence soybean; assay type: in vivo, Glycine max; conditions: for Soybean plant response rating: scale of 0 to 10 where 0 is no effect and 10 is complete control
How it was run: as §1

[5] = test system: rice; assay: Test B flood test rice; assay type: in vivo, Oryza sativa
How it was run: as §2

[6] = test system: pigweed; assay: Test B pre/postemergence pigweed; assay type: in vivo, Amaranthus retroflexus; conditions: for Redroot pigweed plant response rating: scale of 0 to 10 where 0 is no effect and 10 is complete control
How it was run: as §1

[7] = test system: morningglory; assay: Test B pre/postemergence morningglory; assay type: in vivo, Ipomoea hederacea; conditions: for Morningglory plant response rating: scale of 0 to 10 where 0 is no effect and 10 is complete control
How it was run: as §1

[8] = test system: crabgrass; assay: Test B pre/postemergence crabgrass; assay type: in vivo, Digitaria sanguinalis; conditions: for Crabgrass plant response rating: scale of 0 to 10 where 0 is no effect and 10 is complete control
How it was run: as §1

[9] = test system: smallflower flatsedge; assay: Test B flood test smallflower flatsedge; assay type: in vivo, Cyperus difformis
How it was run: as §2

[10] = test system: surinam grass; assay: Test B pre/postemergence surinam grass; assay type: in vivo, Brachiaria decumbens; conditions: for B. signalgrass plant response rating: scale of 0 to 10 where 0 is no effect and 10 is complete control
How it was run: as §1

[11] = test system: rape; assay: Test B pre/postemergence rape; assay type: in vivo, Brassica napus; conditions: for Rape plant response rating: scale of 0 to 10 where 0 is no effect and 10 is complete control
How it was run: as §1

[12] = test system: giant foxtail; assay: Test B pre/postemergence giant foxtail; assay type: in vivo, Setaria faberii; conditions: for Giant foxtail plant response rating: scale of 0 to 10 where 0 is no effect and 10 is complete control
How it was run: as §1

[13] = test system: wild oat; assay: Test B pre/postemergence wild oat; assay type: in vivo, Avena fatua; conditions: for Wild oats plant response rating: scale of 0 to 10 where 0 is no effect and 10 is complete control
How it was run: as §1

[14] = test system: cocklebur; assay: Test B pre/postemergence cocklebur; assay type: in vivo, Xanthium strumarium; conditions: for Cocklebur plant response rating: scale of 0 to 10 where 0 is no effect and 10 is complete control
How it was run: as §1

[15] = test system: corn; assay: Test B pre/postemergence corn; assay type: in vivo, Zea mays; conditions: for Corn plant response rating: scale of 0 to 10 where 0 is no effect and 10 is complete control
How it was run: as §1

[16] = test system: bamyardgrass; assay: Test B flood test barnyardgrass; assay type: in vivo, Echinochloa crus-galli
How it was run: as §2

[17] = Postemergence, Rate 125 g/ha, scale 0 to 10, 0 is no effect, 10 is complete control
[18] = Postemergence, Rate 250 g/ha, scale 0 to 10, 0 is no effect, 10 is complete control
[19] = Preemergence, Rate 62 g/ha, scale 0 to 10 (0 no effect, 10 complete control)
[20] = Rate 500 g/ha, Postemergence, scale 0 to 10, 0 no effect, 10 complete control
[21] = Rate 62 g/ha, flood test species, Pre-emergence, visual evaluation after twelve to sixteen days
[22] = Rate 125 g/ha, under heading Pre-emergence, flood test species, visual evaluation after twelve to sixteen days
[23] = Rate 250 g/ha, Pre-emergence, flood-test species, scale 0 to 10, 0 is no effect, 10 is complete control
[24] = Rate 500 g/ha, Pre-emergence, flood test species, scale 0 to 10 (0 no effect, 10 complete control)

CC(C)N(C(=O)n1oc(=O)n(CC2CCOC2)c1=O)c1ccc(F)cc1 (stereo not shown) [Compound 375]
Plant response rating, Nutsedge [1, 17]: 0
Plant response rating, Nutsedge [1, 18]: 0
Plant response rating, Nutsedge [1, 19]: 0
Nutsedge plant response rating (0 to 10 scale) ([1]; Preemergence, Rate 125 g/ha): 0
Nutsedge plant response rating ([1]; Preemergence, Rate 250 g/ha): 0
Nutsedge plant response rating ([1]; Preemergence, Rate 500 g/ha): 0
Nutsedge plant response rating ([1]; Rate 62 g/ha, Postemergence): 0
Plant response rating, Nutsedge [1, 20]: 6
Plant response rating, Ducksalad (0 to 10 scale, 0 is no effect, 10 is complete control) [2, 21]: 0
Ducksalad plant response rating (0 to 10 scale, 0 is no effect, 10 is complete control) [2, 22]: 0
Ducksalad plant response rating [2, 23]: 0
Ducksalad plant response rating [2, 24]: 0
Plant response rating, Sugarbeets [3, 17]: 0
Plant response rating, Sugarbeets [3, 18]: 0
Plant response rating, Sugarbeets [3, 19]: 0
Sugarbeets plant response rating (0 to 10 scale) ([3]; Preemergence, Rate 125 g/ha): 2
Sugarbeets plant response rating ([3]; Preemergence, Rate 250 g/ha): 4
Sugarbeets plant response rating ([3]; Preemergence, Rate 500 g/ha): 7
Sugarbeets plant response rating ([3]; Rate 62 g/ha, Postemergence): 0
Plant response rating, Sugarbeets [3, 20]: 3
Plant response rating, Soybean [4, 17]: 1
Plant response rating, Soybean [4, 18]: 1
Plant response rating, Soybean [4, 19]: 0
Soybean plant response rating (0 to 10 scale) ([4]; Preemergence, Rate 125 g/ha): 0
Soybean plant response rating ([4]; Preemergence, Rate 250 g/ha): 0
Soybean plant response rating ([4]; Preemergence, Rate 500 g/ha): 0
Soybean plant response rating ([4]; Rate 62 g/ha, Postemergence): 1
Plant response rating, Soybean [4, 20]: 2
Plant response rating, Rice (0 to 10 scale, 0 is no effect, 10 is complete control) [5, 21]: 0
Rice plant response rating (0 to 10 scale, 0 is no effect, 10 is complete control) [5, 22]: 0
Rice plant response rating [5, 23]: 0
Rice plant response rating [5, 24]: 0
Plant response rating, Redroot pigweed [6, 17]: 0
Plant response rating, Redroot pigweed [6, 18]: 0
Plant response rating, Redroot pigweed [6, 19]: 10
Redroot pigweed plant response rating (0 to 10 scale) ([6]; Preemergence, Rate 125 g/ha): 10
Redroot pigweed plant response rating ([6]; Preemergence, Rate 250 g/ha): 10
Redroot pigweed plant response rating ([6]; Preemergence, Rate 500 g/ha): 10
Redroot pigweed plant response rating ([6]; Rate 62 g/ha, Postemergence): 0
Plant response rating, Redroot pigweed [6, 20]: 3
Plant response rating, Morningglory [7, 17]: 1
Plant response rating, Morningglory [7, 18]: 5
Plant response rating, Morningglory [7, 19]: 0
Morningglory plant response rating (0 to 10 scale) ([7]; Preemergence, Rate 125 g/ha): 0
Morningglory plant response rating ([7]; Preemergence, Rate 250 g/ha): 0
Morningglory plant response rating ([7]; Preemergence, Rate 500 g/ha): 0
Morningglory plant response rating ([7]; Rate 62 g/ha, Postemergence): 1
Plant response rating, Morningglory [7, 20]: 6
Plant response rating, Crabgrass [8, 17]: 4
Plant response rating, Crabgrass [8, 18]: 7
Plant response rating, Crabgrass [8, 19]: 7
Crabgrass plant response rating (0 to 10 scale) ([8]; Preemergence, Rate 125 g/ha): 8
Crabgrass plant response rating ([8]; Preemergence, Rate 250 g/ha): 10
Crabgrass plant response rating ([8]; Preemergence, Rate 500 g/ha): 10
Crabgrass plant response rating ([8]; Rate 62 g/ha, Postemergence): 0
Plant response rating, Crabgrass [8, 20]: 9
Plant response rating, S. Flatsedge (0 to 10 scale, 0 is no effect, 10 is complete control) [9, 21]: 0
S. Flatsedge plant response rating (0 to 10 scale, 0 is no effect, 10 is complete control) [9, 22]: 0
S. Flatsedge plant response rating [9, 23]: 0
S. Flatsedge plant response rating [9, 24]: 0
Plant response rating, B. signalgrass [10, 17]: 0
Plant response rating, B. signalgrass [10, 18]: 2
Plant response rating, B. signalgrass [10, 19]: 0
B. signalgrass plant response rating (0 to 10 scale, 0 is no effect, 10 is complete control) ([10]; Preemergence, Rate 125 g/ha): 0
B. signalgrass plant response rating ([10]; Preemergence, Rate 250 g/ha): 4
B. signalgrass plant response rating ([10]; Preemergence, Rate 500 g/ha): 8
B. signalgrass plant response rating ([10]; Rate 62 g/ha, Postemergence): 0
Plant response rating, B. signalgrass [10, 20]: 8
Plant response rating, Rape [11, 17]: 0
Plant response rating, Rape [11, 18]: 0
Plant response rating, Rape [11, 19]: 0
Rape plant response rating (0 to 10 scale) ([11]; Preemergence, Rate 125 g/ha): 2
Rape plant response rating ([11]; Preemergence, Rate 250 g/ha): 6
Rape plant response rating ([11]; Preemergence, Rate 500 g/ha): 8
Rape plant response rating ([11]; Rate 62 g/ha, Postemergence): 0
Plant response rating, Rape [11, 20]: 2
Plant response rating, Giant foxtail [12, 17]: 6
Plant response rating, Giant foxtail [12, 18]: 8
Plant response rating, Giant foxtail [12, 19]: 10
Giant foxtail plant response rating (0 to 10 scale) ([12]; Preemergence, Rate 125 g/ha): 10
Giant foxtail plant response rating ([12]; Preemergence, Rate 250 g/ha): 10
Giant foxtail plant response rating ([12]; Preemergence, Rate 500 g/ha): 10
Giant foxtail plant response rating ([12]; Rate 62 g/ha, Postemergence): 0
Plant response rating, Giant foxtail [12, 20]: 9
Plant response rating, Wild oats [13, 17]: 0
Plant response rating, Wild oats [13, 18]: 6
Plant response rating, Wild oats [13, 19]: 0
Wild oats plant response rating (0 to 10 scale) ([13]; Preemergence, Rate 125 g/ha): 4
Wild oats plant response rating ([13]; Preemergence, Rate 250 g/ha): 9
Wild oats plant response rating ([13]; Preemergence, Rate 500 g/ha): 9
Wild oats plant response rating ([13]; Rate 62 g/ha, Postemergence): 0
Plant response rating, Wild oats [13, 20]: 8
Plant response rating, Cocklebur [14, 17]: 0
Plant response rating, Cocklebur [14, 18]: 0
Plant response rating, Cocklebur [14, 19]: 0
Cocklebur plant response rating (0 to 10 scale) ([14]; Preemergence, Rate 125 g/ha): 0
Cocklebur plant response rating ([14]; Preemergence, Rate 250 g/ha): 0
Cocklebur plant response rating ([14]; Preemergence, Rate 500 g/ha): 0
Cocklebur plant response rating ([14]; Rate 62 g/ha, Postemergence): 0
Plant response rating, Cocklebur [14, 20]: 0
Plant response rating, Corn [15, 17]: 0
Plant response rating, Corn [15, 18]: 0
Plant response rating, Corn [15, 19]: 0
Corn plant response rating (0 to 10 scale) ([15]; Preemergence, Rate 125 g/ha): 2
Corn plant response rating ([15]; Preemergence, Rate 250 g/ha): 2
Corn plant response rating ([15]; Preemergence, Rate 500 g/ha): 7
Corn plant response rating ([15]; Rate 62 g/ha, Postemergence): 0
Plant response rating, Corn [15, 20]: 2
Plant response rating, Barnyardgrass (0 to 10 scale, 0 is no effect, 10 is complete control) [16, 21]: 0
Barnyardgrass plant response rating (0 to 10 scale, 0 is no effect, 10 is complete control) [16, 22]: 0
Barnyardgrass plant response rating [16, 23]: 0
Barnyardgrass plant response rating [16, 24]: 0
